Literature values, collected in patent US20260009079A1, “BIOMARKERS OF PREGNANCY LOSS” (The University of Warwick, priority 2022, published 2026).

Tested on: bone marrow-derived MSCs
Conditions: given over 3 menstrual cycles; previously reported (Tewary et al., 2020)

In the case of `N[C@@H](CC(=O)N1CCn2c(nnc2C(F)(F)F)C1)Cc1cc(F)c(F)cc1F` [sitagliptin], the “recruitment of bone marrow-derived MSCs” value is given as “increases”.
